Structures can show the parent of a compound that is named as a salt.
Legend:
[1] = in water, at 20° C.; cited from earlier work
Solubility in water = format: physicochemical; conditions: sodium salt, no temperature printed for this value
Protocol: 100 ml of a 3.7% strength by weight sodium hydrogen carbonate solution (44.1 mmol NaHCO3) are added to 15.0 g (44.1 mmol) of (4-diphenylphosphinophenyl)methylphosphinic acid and the mixture stirred at room temperature until CO2 formation has ended. The aqueous solution is completely evaporated and dried under reduced pressure. 15.6 g (97% of theory) of sodium (4-diphenylphosphinophenyl)methylphosphinate are obtained. Solubility in water: 590 g/l

| Molecule | water solubility (literature comparison) [1] | Solubility in water (Solubility in water) |
| --- | --- | --- |
| O=S(=O)(O)c1cccc(P(c2ccccc2)c2ccccc2)c1 [Na[TPPMS], sodium salt of triphenylphosphinemonosulfonate] | 80 mg/mL |  |
| CP(=O)(O)c1ccc(P(c2ccccc2)c2ccccc2)cc1 [Sodium (4-diphenylphosphinophenyl)methylphosphinate] |  | 590 mg/mL |
| disodium salt of triphenylphosphinemonophosphonate [Na2 TPPMP] | 380 mg/mL |  |
